One assay concerns the target T1, CIC-1 channels (Rattus norvegicus, UniProt P35524).
T1 sequence (P35524 1-994): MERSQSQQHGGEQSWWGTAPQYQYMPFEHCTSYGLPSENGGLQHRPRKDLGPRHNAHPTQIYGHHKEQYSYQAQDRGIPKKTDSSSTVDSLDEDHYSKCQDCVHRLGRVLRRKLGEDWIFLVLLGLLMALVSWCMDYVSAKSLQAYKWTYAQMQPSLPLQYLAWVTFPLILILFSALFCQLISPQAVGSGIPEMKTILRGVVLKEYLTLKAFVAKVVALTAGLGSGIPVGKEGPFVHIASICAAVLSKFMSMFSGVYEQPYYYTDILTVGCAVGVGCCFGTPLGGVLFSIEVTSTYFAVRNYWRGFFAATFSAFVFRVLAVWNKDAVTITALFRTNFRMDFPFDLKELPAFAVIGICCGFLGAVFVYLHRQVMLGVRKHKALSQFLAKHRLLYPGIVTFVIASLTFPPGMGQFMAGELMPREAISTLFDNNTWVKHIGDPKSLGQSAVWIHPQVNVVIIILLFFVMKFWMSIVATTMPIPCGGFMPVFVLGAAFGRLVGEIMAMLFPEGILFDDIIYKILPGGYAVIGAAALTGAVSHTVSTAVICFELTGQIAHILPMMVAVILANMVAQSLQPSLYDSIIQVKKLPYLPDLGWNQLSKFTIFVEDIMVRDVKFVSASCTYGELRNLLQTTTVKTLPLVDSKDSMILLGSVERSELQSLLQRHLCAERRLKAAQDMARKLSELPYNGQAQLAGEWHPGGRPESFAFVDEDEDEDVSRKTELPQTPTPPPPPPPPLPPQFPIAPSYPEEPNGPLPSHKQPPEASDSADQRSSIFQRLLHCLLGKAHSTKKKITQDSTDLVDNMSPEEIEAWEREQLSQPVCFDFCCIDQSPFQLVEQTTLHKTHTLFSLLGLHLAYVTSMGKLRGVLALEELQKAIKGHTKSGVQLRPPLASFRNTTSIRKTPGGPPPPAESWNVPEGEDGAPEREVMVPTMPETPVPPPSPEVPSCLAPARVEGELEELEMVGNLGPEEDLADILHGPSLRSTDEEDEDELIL
Kind of assay: Electrophysiological measurement of compound inhibition of CIC-1 (Gm) in rat soleus muscle fibres: EC50 (Table 7).

The test system of another assay is rat soleus muscles. Kind of assay: Recovery of force in isolated rat soleus nerve-muscle preparations after 115 nM tubocurarine, 50 μM compound (Table 8). Particulars: 40 mins exposure. The method, boiled down:
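Soleus nerve-muscle preparations from 4-5 wk old rats, force evoked by motor-nerve stimulation. After 90 min in 115 nM tubocurarine, 50 μM compound added with tubocurarine still present; force recovery after 40 min expressed as percentage of pre-tubocurarine force.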

The molecule `C[C@H](Oc1ccc(Cl)cc1-c1ccno1)C(=O)O` [Compound A-26, (2S)-2-[4-chloro-2-(1,2-oxazol-5-yl)phenoxy]propanoic acid] displayed an EC50 on CIC-1 channels of 3.6 µM. In addition, in the assay with rat soleus muscles, the “Point increase (%) of initial force that was restored” value is recorded as 20%.
The corresponding values for `O=C(O)[C@H](CF)Oc1ccc(Br)cc1-c1ccon1` [Compound A-31, (2R)-2-[4-bromo-2-(1,2-oxazol-3-yl)phenoxy]-3-fluoropropanoic acid] are 3.3 µM and 36%.
The corresponding values for `C[C@H](Oc1cc(F)c(Br)cc1-c1ccon1)C(=O)O` [Compound A-44, (2S)-2-[4-bromo-5-fluoro-2-(1,2-oxazol-3-yl)phenoxy]propanoic acid] are 2.9 µM and 27%.
The corresponding values for `C[C@H](Oc1ccc(Br)cc1-c1csnn1)C(=O)O` [Compound A-59, (2S)-2-[4-bromo-2-(1,2,3-thiadiazol-4-yl)phenoxy]propanoic acid] are 5.6 µM and 20%.
As to `O=C(O)COc1ccc(Br)cc1-c1ccon1` [Compound A-64, 2-[4-bromo-2-(1,2-oxazol-3-yl)phenoxy]acetic acid], the EC50 on CIC-1 channels came to 7.4 µM. For the same molecule, the “Point increase (%) of initial force that was restored” value with rat soleus muscles came out at 25%.
